Assay results: ChEMBL document CHEMBL1201862, “PubChem BioAssay data set” (2004)
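Five compound concentrations were applied to cells in 96-well plates for 48 hours; endpoints were derived by simple linear interpolation of the resulting dose-response curve. Here, GI50 denotes the concentration required for 50% inhibition of growth.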 The source made the active and inactive calls. Cut-off read from the data, not from the text of the source: active = GI50 up to about 1.1 µM and inactive = higher.

Experiments:
Test in all cases: DTP human tumour cell line panel, 48 h
M19-MEL = tested on: M19-MEL
SNB-78 = tested on: SNB-78
KM-20L2 = tested on: KM-20L2
LXFL 529 = tested on: LXFL 529
DLD-1 = tested on: DLD-1
DMS-273 = tested on: DMS-273
HOP-18 = tested on: HOP-18
XF498 = tested on: XF498
RXF 631 = tested on: RXF 631

Measured: GI50

COc1ccc(OC)c2c1C(=O)C(Cl)=C(Cl)C2=O
inactive: M19-MEL 4.68 µM | SNB-78 4.61 µM | KM-20L2 10.5 µM | LXFL 529 1.95 µM | DLD-1 3.84 µM | DMS-273 7.57 µM | HOP-18 3.54 µM | XF498 1.61 µM

Oc1ncnc2c1sc(=S)n2-c1ccccc1
inactive: M19-MEL > 100 µM | SNB-78 > 100 µM | KM-20L2 > 100 µM | LXFL 529 > 100 µM | DLD-1 > 100 µM | DMS-273 > 100 µM | XF498 > 100 µM

CN(C)CCCNc1ccc2ncn3c4ccccc4c(=O)c1c23
inactive: M19-MEL 12.1 µM | SNB-78 14.2 µM | KM-20L2 7.41 µM | LXFL 529 8.55 µM | RXF 631 4.7 µM | DLD-1 4.94 µM | HOP-18 5.73 µM

CC(C)Cc1ccc(C(C)CC2=CCC(CN(C)C)C2=O)cc1 (stereo unspecified)
inactive: M19-MEL 4.11 µM | SNB-78 6.43 µM | KM-20L2 11.4 µM | LXFL 529 1.73 µM | RXF 631 16.6 µM | DLD-1 2.33 µM | DMS-273 4.41 µM | HOP-18 18.5 µM

O=C(CCN1CCCCC1)N1CCc2c([nH]c3ccccc23)C1c1cccnc1 (stereo unspecified)
inactive: M19-MEL 21.2 µM | SNB-78 > 86.7 µM | KM-20L2 30.1 µM | LXFL 529 20.9 µM | RXF 631 31 µM | DLD-1 48.4 µM | DMS-273 39.8 µM | HOP-18 > 100 µM | XF498 21.2 µM

CC1=C(O)/C(=C/C(C)CCC/C(C)=C/C=C/C(C)CCCc2ccoc2)OC1=O (stereo unspecified)
inactive: M19-MEL 48.3 µM | SNB-78 18.3 µM | KM-20L2 29.6 µM | LXFL 529 31.8 µM | DLD-1 31 µM | DMS-273 55.3 µM | XF498 7.08 µM

CC(C)(C)/N=C\N1CCC(C(c2ccccc2)c2ccccc2)CC1
inactive: M19-MEL 37.2 µM | SNB-78 64.6 µM | KM-20L2 14.9 µM | DLD-1 > 100 µM | DMS-273 65.3 µM | HOP-18 53.2 µM | XF498 30.8 µM

Cc1ccc(/N=N/c2c(-c3ccccc3)nn(C(=O)CC(=O)Nc3ccc(Cl)cc3)c2-c2ccccc2)cc1
inactive: SNB-78 79.6 µM | KM-20L2 63.4 µM | LXFL 529 27.9 µM | RXF 631 59.4 µM | DLD-1 83.6 µM | DMS-273 > 100 µM | HOP-18 > 100 µM

O=C(c1ccccc1)c1cn(/N=C\c2ccccc2)c(=O)nc1-c1ccccc1
inactive: M19-MEL > 100 µM | SNB-78 > 100 µM | KM-20L2 > 100 µM | LXFL 529 > 100 µM | DLD-1 > 100 µM | HOP-18 > 100 µM

CC1c2[nH]c3ccccc3c2CCN1O (stereo unspecified)
inactive: M19-MEL > 100 µM | SNB-78 > 100 µM | KM-20L2 > 100 µM | LXFL 529 > 100 µM | RXF 631 > 100 µM | DLD-1 > 100 µM | DMS-273 > 100 µM | HOP-18 > 100 µM

CN(C)c1n/c(=N/c2ccc3c(c2)OCO3)ss1
inactive: M19-MEL > 100 µM | SNB-78 44 µM | KM-20L2 39.9 µM | LXFL 529 35.3 µM | DLD-1 79.8 µM | DMS-273 66.5 µM | HOP-18 > 100 µM | XF498 48.5 µM

COC(=O)[C@H](C)[C@H]1CC[C@@](C)([C@H]2CC3C(C)(C)[C@H]4CCC(C)=C[C@H]4C[C@@]3(C)O2)OO1 (stereo partly specified)
inactive: M19-MEL 13.2 µM | SNB-78 10.8 µM | KM-20L2 13.4 µM | LXFL 529 2.03 µM | DLD-1 12 µM | DMS-273 12.6 µM | XF498 10 µM

C=C1CCC2C(C)(CO)C(O)CCC2(C)C1C/C=C1/CCOC1=O (stereo unspecified)
inactive: M19-MEL > 100 µM | KM-20L2 > 100 µM | LXFL 529 > 100 µM | DLD-1 > 100 µM | DMS-273 > 100 µM | HOP-18 > 100 µM

NC(=O)C12CCC1C1CCCCC12N1CCOCC1 (stereo unspecified)
inactive: M19-MEL > 100 µM | SNB-78 > 100 µM | KM-20L2 > 100 µM | LXFL 529 > 100 µM | RXF 631 > 100 µM | DLD-1 > 100 µM | HOP-18 > 100 µM

NS(=O)(=O)c1ccc(NC(=O)Cc2nc3ccccc3s2)cc1
inactive: M19-MEL 14.6 µM | SNB-78 19.5 µM | KM-20L2 18.7 µM | LXFL 529 16.8 µM | RXF 631 16.4 µM | DLD-1 15.5 µM | DMS-273 18.7 µM | HOP-18 17.8 µM | XF498 16.2 µM

CC1(C)CC2(S(=O)(=O)c3ccccc3)ON1CC2S(=O)(=O)c1ccccc1 (stereo unspecified)
inactive: M19-MEL > 100 µM | KM-20L2 > 100 µM | LXFL 529 76.9 µM | DLD-1 > 100 µM | DMS-273 53.6 µM
